According to ChEMBL document CHEMBL3046330, “Synthesis and biological activity of hydrazidehydrazones and their corresponding 3-acetyl-2,5-disubstituted-2,3-dihydro-1,3,4-oxadiazoles” (Med Chem Res, 2012):
≈ marks a conversion by molar mass, not a printed value. Calls of active or inactive are those of the source. The calls are words filed in the database; no cut-off is given here.

Legend:
Candida albicans [1] = assay: Antifungal activity against Candida albicans clinical isolate at 2000 ug/ml by agar diffusion method; type: functional; conditions: read-out: IZ
Candida albicans [2] = assay: Antifungal activity against Candida albicans clinical isolate after 24 hr by NCCLS broth microdilution method; type: functional
HL-60 [3] = assay: Cytotoxicity against Homo sapiens (human) HL60 cells up to 25 ug/ml; type: cell-based
Cyberlindnera jadinii = assay: Antifungal activity against Cyberlindnera jadinii NRRL Y-900 after 24 hr by NCCLS broth microdilution method; type: functional; conditions: Williopsis jadinii, NRRL Y-900, 24 h
Nakaseomyces glabratus = assay: Antifungal activity against Candida glabrata clinical isolate after 24 hr by NCCLS broth microdilution method; type: functional
[4] = biological target: T1, Nitric oxide synthase, inducible (Mus musculus) (UniProt P29477); assay: Inhibition of iNOS in Mus musculus (mouse) RAW264.7 cells assessed as inhibition of LPS-induced nitrite production up to 25 ug/ml incubated for 30 min prior to LPS challenge measured after 24 hr by Griess assay relative to vehicle-treated control; type: cell-based
T1 sequence (whole entry): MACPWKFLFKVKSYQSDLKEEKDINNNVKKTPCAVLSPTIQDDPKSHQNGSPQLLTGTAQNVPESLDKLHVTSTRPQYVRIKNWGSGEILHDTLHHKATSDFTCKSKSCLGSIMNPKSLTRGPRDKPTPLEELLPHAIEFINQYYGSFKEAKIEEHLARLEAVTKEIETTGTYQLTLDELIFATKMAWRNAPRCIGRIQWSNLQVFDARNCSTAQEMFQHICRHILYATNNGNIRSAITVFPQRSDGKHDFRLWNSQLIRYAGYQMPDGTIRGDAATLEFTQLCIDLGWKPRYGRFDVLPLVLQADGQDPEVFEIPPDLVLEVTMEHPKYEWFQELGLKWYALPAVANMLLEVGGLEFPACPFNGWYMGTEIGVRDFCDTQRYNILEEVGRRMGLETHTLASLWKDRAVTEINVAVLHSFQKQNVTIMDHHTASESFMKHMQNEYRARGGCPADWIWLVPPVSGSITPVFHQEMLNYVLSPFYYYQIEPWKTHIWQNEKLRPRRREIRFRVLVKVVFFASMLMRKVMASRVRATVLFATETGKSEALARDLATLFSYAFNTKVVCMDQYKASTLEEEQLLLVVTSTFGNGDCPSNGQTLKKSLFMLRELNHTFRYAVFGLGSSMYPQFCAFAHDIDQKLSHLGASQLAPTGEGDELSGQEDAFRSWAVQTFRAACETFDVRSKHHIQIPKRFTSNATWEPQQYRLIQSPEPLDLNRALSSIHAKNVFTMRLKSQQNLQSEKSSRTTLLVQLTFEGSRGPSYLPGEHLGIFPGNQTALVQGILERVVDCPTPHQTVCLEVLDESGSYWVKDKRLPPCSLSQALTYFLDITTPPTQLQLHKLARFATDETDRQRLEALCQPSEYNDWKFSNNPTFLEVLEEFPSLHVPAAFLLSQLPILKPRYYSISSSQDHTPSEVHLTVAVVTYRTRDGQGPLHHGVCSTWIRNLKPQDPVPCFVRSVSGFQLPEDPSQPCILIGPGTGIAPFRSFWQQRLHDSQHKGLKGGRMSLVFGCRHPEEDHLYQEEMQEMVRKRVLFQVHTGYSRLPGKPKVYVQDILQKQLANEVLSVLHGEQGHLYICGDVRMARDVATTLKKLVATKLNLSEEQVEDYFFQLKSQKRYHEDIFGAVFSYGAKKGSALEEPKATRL

Botrytis cinerea = assay: Antifungal activity against Botryotinia fuckeliana at 0.3 to 30 uM after 48 to 72 hr by broth microdilution method; type: functional, organism-based
[5] = Cytotoxicity against Sus scrofa (pig) LLC-PK11 cells assessed as cell viability up to 25 ug/ml after 48 hr by neutral red assay; type: cell-based; conditions: llc-pk11, 48 h
SW1353 = assay: Inhibition of PMA-induced NFkappaB activity in Homo sapiens (human) SW1353 cells up to 25 ug/ml incubated for 30 min followed by PMA induction for 8 hr by luciferase reporter gene assay; type: cell-based
Candida albicans [6] = assay: Antifungal activity against Candida albicans ATCC 90028 after 24 hr by NCCLS broth microdilution method; type: functional; conditions: ATCC 90028, 24 h
Candida parapsilosis = assay: Antifungal activity against Candida parapsilosis NRRL Y-12696 after 24 hr by NCCLS broth microdilution method; type: functional; conditions: Lodderomyces parapsilosis, NRRL Y-12696, 24 h
Candida albicans [7] = assay: Antifungal activity against Candida albicans NRRL Y-12983 after 24 hr by NCCLS broth microdilution method; type: functional; conditions: NRRL Y-12983, 24 h
HL-60 [8] = assay: Antioxidant activity in PMA-stimulated Homo sapiens (human) HL60 cells assessed as inhibition of intracellular ROS generation up to 25 ug/ml incubated for 30 min prior to PMA stimulation measured after 30 min by DCFH-DA assay relative to vehicle-treated control; type: functional, cell-based
BT-549 = assay: Cytotoxicity against Homo sapiens (human) BT549 cells assessed as cell viability up to 25 ug/ml after 48 hr by neutral red assay; type: functional, cell-based
RAW264.7 [9] = assay: Cytotoxicity against Mus musculus (mouse) RAW264.7 cells up to 25 ug/ml; type: cell-based
Candida tropicalis [10] = assay: Antifungal activity against Candida tropicalis NRRL Y-12968 at 2000 ug/ml by agar diffusion method; type: functional; conditions: read-out: IZ
Vero = assay: Cytotoxicity against Chlorocebus aethiops (African green monkey) Vero cells assessed as cell viability up to 25 ug/ml after 48 hr by neutral red assay; type: cell-based; conditions: chlorocebus sabaeus
Colletotrichum fragariae = assay: Antifungal activity against Colletotrichum fragariae at 0.3 to 30 uM after 48 to 72 hr by broth microdilution method; type: functional, organism-based
Fusarium oxysporum = assay: Antifungal activity against Fusarium oxysporum assessed as growth inhibition at 30 uM after 72 hr by broth microdilution method; type: functional; conditions: read-out: GI
SK-MEL = assay: Cytotoxicity against Homo sapiens (human) SK-MEL cells assessed as cell viability up to 25 ug/ml after 48 hr by neutral red assay; type: functional, cell-based
Transcription factor Sp1 = Transcription factor Sp1 (Homo sapiens, UniProt P08047); assay: Inhibition of Sp1 (unknown origin) up to 25 ug/ml by luciferase reporter gene assay
SK-OV-3 = assay: Cytotoxicity against Homo sapiens (human) SKOV3 cells assessed as cell viability up to 25 ug/ml after 48 hr by neutral red assay; type: functional, cell-based
KB = assay: Cytotoxicity against Homo sapiens (human) KB cells assessed as cell viability up to 25 ug/ml after 48 hr by neutral red assay; type: functional, cell-based
Pichia kudriavzevii = assay: Antifungal activity against Pichia kudriavzevii NRRL Y-7179 after 24 hr by NCCLS broth microdilution method; type: functional; conditions: NRRL Y-7179, 24 h
[11] = test system: Colletotrichum gloeosporioides; assay: Antifungal activity against Colletotrichum gloeosporioides assessed as growth inhibition at 30 uM after 72 hr by broth microdilution method; type: functional; conditions: read-out: GI
RAW264.7 [12] = assay: Cytotoxicity against Mus musculus (mouse) RAW264.7 cells; type: cell-based
Candida tropicalis [13] = assay: Antifungal activity against Candida tropicalis NRRL Y-12968 after 24 hr by NCCLS broth microdilution method; type: functional; conditions: NRRL Y-12968, 24 h
[14] = biological target: T2, Nitric oxide synthase, inducible (Mus musculus, UniProt P29477); assay: Inhibition of iNOS in Mus musculus (mouse) RAW264.7 cells assessed as inhibition of LPS-induced nitrite production incubated for 30 min prior to LPS challenge measured after 24 hr by Griess assay; type: cell-based
T2 sequence (P29477 whole entry): T1 sequence (whole entry)

Phomopsis obscurans = assay: Antifungal activity against Phomopsis obscurans assessed as growth inhibition at 30 uM after 144 hr by broth microdilution method; type: functional; conditions: Paraphomopsis obscurans, read-out: GI
Colletotrichum acutatum = assay: Antifungal activity against Colletotrichum acutatum assessed as growth inhibition at 30 uM after 72 hr by broth microdilution method; type: functional; conditions: read-out: GI
HL-60 [15] = assay: Cytotoxicity against Homo sapiens (human) HL60 cells; type: cell-based

Transcription factor Sp1, sequence (P08047 whole entry): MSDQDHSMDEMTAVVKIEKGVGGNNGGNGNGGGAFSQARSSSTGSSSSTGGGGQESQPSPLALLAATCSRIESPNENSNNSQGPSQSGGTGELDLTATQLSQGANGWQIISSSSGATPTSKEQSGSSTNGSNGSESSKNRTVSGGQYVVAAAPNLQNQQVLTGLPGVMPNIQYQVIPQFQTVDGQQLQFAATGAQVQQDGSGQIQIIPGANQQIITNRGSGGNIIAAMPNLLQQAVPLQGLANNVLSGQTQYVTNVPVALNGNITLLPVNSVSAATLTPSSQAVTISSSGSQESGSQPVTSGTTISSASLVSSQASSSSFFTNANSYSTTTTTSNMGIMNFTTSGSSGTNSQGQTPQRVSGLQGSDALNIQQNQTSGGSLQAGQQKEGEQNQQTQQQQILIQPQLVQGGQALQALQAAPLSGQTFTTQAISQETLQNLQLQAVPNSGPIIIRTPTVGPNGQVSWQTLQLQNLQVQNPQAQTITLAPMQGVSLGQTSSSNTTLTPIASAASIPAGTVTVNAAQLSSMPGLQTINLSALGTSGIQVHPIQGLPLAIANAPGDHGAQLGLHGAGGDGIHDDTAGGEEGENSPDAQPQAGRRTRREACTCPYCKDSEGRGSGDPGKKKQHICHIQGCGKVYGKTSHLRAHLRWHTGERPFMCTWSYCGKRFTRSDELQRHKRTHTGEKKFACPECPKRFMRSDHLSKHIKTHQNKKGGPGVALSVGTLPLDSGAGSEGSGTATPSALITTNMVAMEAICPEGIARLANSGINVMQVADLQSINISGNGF

SMILES	zone of inhibition at 2000 µg/mL (Candida albicans [1]) [mm]	MIC (Candida albicans [2]) [mg/L]	Activity (HL-60 [3])	MIC (Cyberlindnera jadinii) [mg/L]	MIC (Nakaseomyces glabratus) [mg/L]	inhibition [4]	Activity [5]	inhibition (SW1353)	MIC (Candida albicans [6]) [mg/L]	MIC (Candida parapsilosis) [mg/L]	MIC (Candida albicans [7]) [mg/L]	inhibition (HL-60 [8])	Activity (BT-549)	zone of inhibition at 2000 µg/mL (Candida tropicalis [10]) [mm]	Activity (Vero)	Activity (SK-MEL)	inhibition (INH) (Transcription factor Sp1)	Activity (SK-OV-3)	Activity (KB)	MIC (Pichia kudriavzevii) [mg/L]	also measured
O=C(N/N=C/c1ccc(Br)cc1)c1ccc(F)cc1	9	500 (≈ 1560 µM)	Non-toxic	1000 (≈ 3110 µM)	250 (≈ 778 µM)	inactive	Not Active	inactive	500 (≈ 1560 µM)	1000 (≈ 3110 µM)	500 (≈ 1560 µM)	inactive	inactive	9	Not Active	inactive	Not Active	inactive	inactive	500 (≈ 1560 µM)	Activity (Botrytis cinerea): inactive; Activity (RAW264.7 [9]): Non-toxic; Activity (Colletotrichum fragariae): inactive; inhibition of growth at 30 µM (Fusarium oxysporum): 35%; inhibition of growth at 30 µM [11]: 22%
O=C(N/N=C/c1ccc(O)cc1)c1ccc(F)cc1	9	–	Non-toxic	500 (≈ 1940 µM)	–	inactive	Not Active	inactive	500 (≈ 1940 µM)	500 (≈ 1940 µM)	500 (≈ 1940 µM)	inactive	inactive	9	Not Active	inactive	Not Active	inactive	inactive	500 (≈ 1940 µM)	IC50 (RAW264.7 [12]): > 25 mg/L; MIC (Candida tropicalis [13]): 500 mg/L (≈ 1940 µM); IC50 [14]: > 96.8 µM
CC(=O)N1N=C(c2ccc(F)cc2)OC1c1ccc(Br)s1 (centres undefined)	9	> 1000	–	> 1000	> 1000	inactive	Not Active	inactive	> 1000	> 1000	> 1000	inactive	inactive	9	Not Active	inactive	Not Active	inactive	inactive	> 1000	MIC (Candida tropicalis [13]): > 1000 mg/L; Activity (Botrytis cinerea): inactive; inhibition of growth at 30 µM (Phomopsis obscurans): 65%; inhibition of growth at 30 µM (Colletotrichum acutatum): 49%; Activity (RAW264.7 [9]): Non-toxic; Activity (Colletotrichum fragariae): inactive; inhibition of growth at 30 µM (Fusarium oxysporum): 67%; IC50 (HL-60 [15]): 5.9 mg/L (≈ 16 µM); inhibition of growth at 30 µM [11]: 66%
